In paper PMC7503500, “A Structure-Activity Relationship Comparison of Imidazodiazepines Binding at Kappa, Mu, and Delta Opioid Receptors and the GABAA Receptor” (Molecules, 2020):
Read-outs that look alike come from different tables or passages of the source.

Experiments:
[1] = tested on: synaptic benzodiazepine-sensitive receptors (BZR), GABAAR; assay: 3H-flunitrazepam binding, rat brain homogenate; settings: for BZR % (percent inhibition): at 10,000 nM; for Ki: read-out: BZR (Ki)
µ opioid receptor (MOR) = µ opioid receptor (MOR) (Homo sapiens, UniProt P35372); assay: Radioligand competition binding, MOR ([3H]-DAMGO), HEK293 cell homogenates; settings: [3H]-DAMGO; for inhibition at 10 µM: read-out: MOR % (percent inhibition), at 10,000 nM; for MOR % (percent inhibition): at 10,000 nM
δ opioid receptor (DOR) = δ opioid receptor (DOR) (Homo sapiens, UniProt P41143); assay: Radioligand competition binding, DOR ([3H]-DADLE), HEK293 cell homogenates; settings: for inhibition at 10 µM: read-out: DOR % (percent inhibition), at 10,000 nM; for DOR % (percent inhibition): at 10,000 nM
κ opioid receptor (KOR) = κ opioid receptor (KOR) (Homo sapiens, UniProt P41145); assay: Radioligand competition binding, KOR ([3H]-U69593), HEK293 cell homogenates; settings: for inhibition at 10 µM: read-out: KOR % (percent inhibition), at 10,000 nM; for inhibition at 10 µM / KOR % (percent inhibition): [3H]-U69593; for KOR % (percent inhibition): at 10,000 nM
[2] = read-out: KOR (Ki), [3H]-U69593, HEK293 homogenates

Compound | BZR % (percent inhibition) [1] [%] | Ki [1] [nM] | inhibition at 10 µM (µ opioid receptor (MOR)) [%] | inhibition at 10 µM (δ opioid receptor (DOR)) [%] | Ki (κ opioid receptor (KOR)) [nM] | inhibition at 10 µM (κ opioid receptor (KOR)) [%] | MOR % (percent inhibition) (µ opioid receptor (MOR)) [%] | DOR % (percent inhibition) (δ opioid receptor (DOR)) [%] | KOR % (percent inhibition) (κ opioid receptor (KOR)) [%] | Ki (κ opioid receptor (KOR); [2]) [nM] | Ki (µ opioid receptor (MOR); read-out: MOR Ki, HEK293 homogenates) [nM]
C#Cc1ccc2c(c1)C(c1ccccc1F)=N[C@@H](C)c1c(C(=O)OC(C)C)ncn1-2 [GL-I-31] | 97 | 245 | 32 | 8 | 65 | 94 | – | – | – | – | –
C#Cc1ccc2c(c1)C(c1ccccc1F)=N[C@@H](C)c1c(C(=O)OCCC)ncn1-2 [GL-I-32] | 98 | 148 | 9 | 14 | 64 | 95 | – | – | – | – | –
C#Cc1ccc2c(c1)C(c1ccccc1F)=N[C@@H](C)c1c(C(=O)OC(C)(C)CC)ncn1-2 [GL-I-33] | 96 | 117 | 30 | 25 | 34 | 94 | – | – | – | – | –
C#Cc1ccc2c(c1)C(c1ccccc1F)=N[C@@H](C)c1c(C(=O)OCC(F)(F)F)ncn1-2 [GL-I-36] | 77 | 418 | 8 | 0 | 411 | 85 | – | – | – | – | –
C#Cc1ccc2c(c1)C(c1ccccc1F)=N[C@@H](C)c1c(C(=O)OC3CC3)ncn1-2 [GL-I-38] | 96 | 127 | 18 | 16 | 68 | 95 | – | – | – | – | –
C#Cc1ccc2c(c1)C(c1ccccc1F)=N[C@@H](C)c1c(C(=O)NC(C)(C)C)ncn1-2 [GL-I-41] | 90 | 140 | 40 | 10 | 39 | 97 | – | – | – | – | –
C#Cc1ccc2c(c1)C(c1ccccc1F)=N[C@@H](C)c1c(C(=O)NCC)ncn1-2 [GL-I-43] | 94 | 44 | 22 | 3 | 102 | 95 | – | – | – | – | –
C#Cc1ccc2c(c1)C(c1ccccc1F)=N[C@@H](C)c1c(C(=O)N(C)C)ncn1-2 [GL-I-54] | 94 | 90 | 18 | 11 | 788 | 78 | – | – | – | – | –
C#Cc1ccc2c(c1)C(c1ccccc1F)=N[C@@H](C)c1c(C(=O)NC3CC3)ncn1-2 [GL-I-55] | 95 | 20 | 17 | 24 | 150 | 93 | – | – | – | – | –
C#Cc1ccc2c(c1)C(c1ccccc1F)=N[C@@H](C)c1c(-c3nc(C)no3)ncn1-2 [GL-I-65] | 79 | 1150 | – | – | – | – | 2 | 7 | 88 | 222 | –
C#Cc1ccc2c(c1)C(c1ccccc1F)=N[C@@H](C)c1c(-c3nc(CC)no3)ncn1-2 [GL-I-66] | 80 | 654 | – | – | – | – | 28 | 2 | 92 | 212 | –
C#Cc1ccc2c(c1)C(c1ccccc1F)=N[C@@H](C)c1c(C(=O)SCC)ncn1-2 [GL-I-77] | 92 | 124 | 41 | 4 | 125 | 95 | – | – | – | – | –
CCOC(=O)c1ncn2c1[C@H](C)N=C(c1ccccc1F)c1cc(C3CC3)ccc1-2 [GL-I-78] | 76 | 352 | – | – | – | – | 32 | 41 | 96 | – | –
C#Cc1ccc2c(c1)C(c1ccccc1F)=N[C@@H](C)c1c(-c3nc(C(C)C)no3)ncn1-2 [GL-I-81] | 83 | 839 | – | – | – | – | 64 | 25 | 93 | 127 | 2920
CCOC(=O)c1ncn2c1[C@@H](C)N=C(c1ccccn1)c1cc(Br)ccc1-2 [GL-II-06] | 81 | 556 | 11 | 9 | 401 | 79 | – | – | – | – | –
C#Cc1ccc2c(c1)C(c1ccccn1)=N[C@H](C)c1c(C(=O)OCC)ncn1-2 [GL-II-19] | 71 | 1140 | 17 | 2 | – | 44 | – | – | – | – | –
C#Cc1ccc2c(c1)C(c1ccccn1)=N[C@H](C)c1c(C(=O)O)ncn1-2 [GL-II-30] | 65 | 431 | 20 | 4 | – | 0 | – | – | – | – | –
C#Cc1ccc2c(c1)C(c1ccccn1)=N[C@H](C)c1c(C(=O)NC)ncn1-2 [GL-II-31] | 72 | 1700 | 17 | 3 | – | 23 | – | – | – | – | –
C#Cc1ccc2c(c1)C(c1ccccn1)=N[C@H](C)c1c(C(=O)OC)ncn1-2 [GL-II-32] | 63 | 1430 | 32 | 0 | – | 35 | – | – | – | – | –
C[C@H]1N=C(c2ccccn2)c2cc(Br)ccc2-n2cnc(C(=O)O)c21 [GL-II-51] | 84 | 181 | 0 | 0 | – | 11 | – | – | – | – | –
C#Cc1ccc2c(c1)C(c1ccccn1)=N[C@H](C)c1c(-c3nc(CC)no3)ncn1-2 [GL-II-54] | 66 | 2040 | – | – | – | – | 0 | 0 | 80 | 504 | –
C#Cc1ccc2c(c1)C(c1ccccc1F)=N[C@H](C)c1c(C(=O)N(C)C)ncn1-2 [GL-II-73] | 75 | 506 | 6 | 0 | 1190 | 58 | – | – | – | – | –
C#Cc1ccc2c(c1)C(c1ccccc1F)=N[C@H](C)c1c(C(=O)NCC)ncn1-2 [GL-II-74] | 84 | 68 | 10 | 0 | 194 | 86 | – | – | – | – | –
C#Cc1ccc2c(c1)C(c1ccccc1F)=N[C@H](C)c1c(C(=O)NC3CC3)ncn1-2 [GL-II-75] | 85 | 93 | 0 | 3 | 278 | 81 | – | – | – | – | –
C#Cc1ccc2c(c1)C(c1ccccc1F)=N[C@H](C)c1c(C(=O)N3CCCC3)ncn1-2 [GL-II-76] | 43 | – | 0 | 0 | 371 | 80 | – | – | – | – | –
C#Cc1ccc2c(c1)C(c1ccccn1)=NCc1c(C(=O)OCC)ncn1-2 [Hz-166] | – | – | 6 | 49 | 3820 | 60 | – | – | – | – | –
